Laboratory results published in patent publication US10011571B2, “Preparation method for aromatic heterocyclic compound used as selective JAK3 and/or JAK1 kinase inhibitor and application of aromatic heterocyclic compound” (SHENZHEN CHIPSCREEN BIOSCIENCES, LTD., priority 2014, dated 2018).

Tests used:
JAK2 = JAK2 (Homo sapiens (Human), UniProt O60674); test: Z'-LYTE enzymatic activity detection, JAK2; assay type: biochemical; details: test compound 30 nM; read-out: JAK2 % inhibitory rate @30 nM
JAK2, sequence (O60674 whole entry): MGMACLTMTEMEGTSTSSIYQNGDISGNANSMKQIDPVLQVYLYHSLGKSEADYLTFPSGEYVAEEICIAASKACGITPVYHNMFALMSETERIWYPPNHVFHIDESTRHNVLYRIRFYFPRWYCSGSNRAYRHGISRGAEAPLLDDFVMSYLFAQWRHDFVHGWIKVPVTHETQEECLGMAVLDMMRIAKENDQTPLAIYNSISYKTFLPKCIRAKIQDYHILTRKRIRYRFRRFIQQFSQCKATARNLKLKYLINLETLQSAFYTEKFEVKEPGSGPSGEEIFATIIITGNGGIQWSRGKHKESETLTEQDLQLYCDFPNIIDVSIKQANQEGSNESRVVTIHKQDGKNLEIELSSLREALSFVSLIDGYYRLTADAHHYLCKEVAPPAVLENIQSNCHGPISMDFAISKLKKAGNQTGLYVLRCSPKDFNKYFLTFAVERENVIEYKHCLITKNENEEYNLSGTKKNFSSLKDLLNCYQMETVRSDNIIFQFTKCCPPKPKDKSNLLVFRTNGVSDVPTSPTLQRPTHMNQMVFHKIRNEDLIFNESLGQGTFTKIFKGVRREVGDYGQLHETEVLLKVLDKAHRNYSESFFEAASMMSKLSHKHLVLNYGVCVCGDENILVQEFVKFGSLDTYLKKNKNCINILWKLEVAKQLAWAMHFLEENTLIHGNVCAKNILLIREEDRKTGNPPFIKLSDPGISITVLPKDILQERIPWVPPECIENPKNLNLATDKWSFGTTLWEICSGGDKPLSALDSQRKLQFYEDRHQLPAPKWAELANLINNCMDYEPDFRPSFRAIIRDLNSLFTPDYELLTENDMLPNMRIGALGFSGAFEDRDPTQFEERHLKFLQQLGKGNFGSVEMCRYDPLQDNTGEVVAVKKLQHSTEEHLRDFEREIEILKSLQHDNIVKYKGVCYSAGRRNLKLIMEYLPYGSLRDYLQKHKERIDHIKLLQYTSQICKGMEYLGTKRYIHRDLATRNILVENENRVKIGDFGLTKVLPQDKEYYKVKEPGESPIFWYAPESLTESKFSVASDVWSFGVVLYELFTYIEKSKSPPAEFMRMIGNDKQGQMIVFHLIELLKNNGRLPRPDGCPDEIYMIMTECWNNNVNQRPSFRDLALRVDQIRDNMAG
Method: (§1) The basic principle of in vitro enzymatic activity assay is based on the difference between the intensities of fluorescence signals generated at different wavelengths (445 nm and 520 nm) from the phosphorylated substrate and non-phosphorylated substrate, in which the specific fluorescence-labeled substrate is phosphorylated by the kinase. When different test compounds are added, the inhibition of kinase activity is represented as the different degrees of substrate phosphorylation, and thus as the different intensities of fluorescence signal, based on which the inhibitory activity of the compound on the kinase can be calculated. Basic detection principle is illustrated in FIG. 1.
(§2) In an enzymatic inhibitory activity detection, GST-labeled human recombinant JAK kinases, including JAK1/PV4774, JAK2/PV4210, JAK3/PV3855, TYK2/PV4790 and their corresponding specific substrates, including Tyr6 (Z′-LYTE® Kinase Assay Kit-Tyrosine 6 Peptide, JAK1/PV4122), Tyr4 (Z′-LYTE® Kinase Assay Kit-Tyrosine 4 Peptide, JAK2/PV3193), Tyr4 (Z′-LYTE® Kinase Assay Kit-Tyrosine 4 Peptide, JAK3/PV3193), Tyr3 (Z′-LYTE® Kinase Assay Kit-[…], TYK2/PV3192) are used. In all tests, development reagent A (PV3297) was used as the test agent. All materials mentioned above were purchased from Invitrogen.
(§3) (1) Preparation: kinase reaction buffer (working solution) is prepared according to the instruction; a concentration gradient of the test compound is prepared by dilution using the kinase reaction buffer (the highest compound concentration is 10 μM for JAK1, JAK2, and TYK2 detection, and 1 μM for JAK3 detection, respectively).
(§4) (2) 10 μl of reaction system, comprising 2.5 μL test compound, 5 μL kinase reaction buffer and 2.5 μL ATP solution (provided by the kit), is mixed and reaction is performed at room temperature for 1 h.
(§5) (3) Controls, including a solvent control without the test compound, a negative control without ATP and a positive control with the phosphorylated substrate, are tested together with the detection. All tests are carried out in triplicate.
(§6) (4) After the enzymatic reaction, 5 μL pre-formulated development buffer is added, and reaction is performed at room temperature for 1 h. Subsequently, the reaction is terminated by adding 5 μL stop buffer.
(§7) (5) The fluorescence signal in each well is detected by an Ascent Fluoroskan FL reader (Thermo Labsystems) at an excitation wavelength of 400 nm, and emission wavelengths of 445 nm and 520 nm. The proportion of substrate phosphorylation is obtained by reference to the fluorescence signal intensity C445/F520.
(§8) (6) The enzymatic inhibitory rate of the test compound can be calculated based on the following equation: Inhibitory rate (%)=1−the proportion of substrate phosphorylation in the detection well/the proportion of substrate phosphorylation in the solvent control well. The half-inhibitory concentration (IC50) can be calculated using an IC50 calculator based on the inhibitory rates of phosphorylation for the test compounds at different concentration gradients.
(§9) Based on the above method, the compounds described herein are enzymatically evaluated in vitro for JAKs (the concentration of the test compound is 30 nM for JAK3 and JAK2 test, and 300 nM for JAK1 test) using Xeljanz (tofacitinib citrate) as the positive control.

JAK1 = JAK1 (Homo sapiens (Human), UniProt P23458); test: Z'-LYTE enzymatic activity detection, JAK1; assay type: biochemical; details: test compound 300 nM; for inhibition at 0.3 µM: read-out: JAK1 % inhibitory rate @300 nM
JAK1, sequence (P23458 whole entry): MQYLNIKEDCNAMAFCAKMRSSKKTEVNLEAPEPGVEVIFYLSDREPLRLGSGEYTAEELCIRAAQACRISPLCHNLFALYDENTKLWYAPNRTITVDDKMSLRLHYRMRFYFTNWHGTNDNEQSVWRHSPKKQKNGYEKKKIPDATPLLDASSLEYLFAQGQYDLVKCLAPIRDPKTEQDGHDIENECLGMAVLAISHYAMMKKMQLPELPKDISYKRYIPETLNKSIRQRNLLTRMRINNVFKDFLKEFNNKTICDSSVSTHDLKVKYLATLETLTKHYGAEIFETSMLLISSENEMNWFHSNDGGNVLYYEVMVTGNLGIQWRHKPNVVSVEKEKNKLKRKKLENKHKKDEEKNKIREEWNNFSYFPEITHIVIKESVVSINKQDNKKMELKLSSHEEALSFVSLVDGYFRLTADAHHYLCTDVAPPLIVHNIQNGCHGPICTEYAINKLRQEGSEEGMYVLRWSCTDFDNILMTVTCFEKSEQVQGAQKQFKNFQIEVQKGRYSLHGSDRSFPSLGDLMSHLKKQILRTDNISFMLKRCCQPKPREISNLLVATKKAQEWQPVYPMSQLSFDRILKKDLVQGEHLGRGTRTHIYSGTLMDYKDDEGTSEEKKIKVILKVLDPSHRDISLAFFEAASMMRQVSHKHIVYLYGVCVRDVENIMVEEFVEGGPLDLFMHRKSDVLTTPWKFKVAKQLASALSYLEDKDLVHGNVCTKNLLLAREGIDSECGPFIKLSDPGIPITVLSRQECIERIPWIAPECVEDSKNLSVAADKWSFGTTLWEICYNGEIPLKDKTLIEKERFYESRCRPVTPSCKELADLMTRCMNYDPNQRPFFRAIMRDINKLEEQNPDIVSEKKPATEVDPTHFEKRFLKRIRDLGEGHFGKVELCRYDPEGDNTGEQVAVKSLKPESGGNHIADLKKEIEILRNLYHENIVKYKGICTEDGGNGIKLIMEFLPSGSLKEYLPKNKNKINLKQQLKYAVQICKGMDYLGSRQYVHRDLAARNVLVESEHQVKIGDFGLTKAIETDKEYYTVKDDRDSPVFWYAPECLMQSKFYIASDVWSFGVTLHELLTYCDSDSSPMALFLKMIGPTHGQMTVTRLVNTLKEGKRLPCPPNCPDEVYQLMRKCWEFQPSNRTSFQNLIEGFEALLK
Method: as §1, §2, §3, §4, §5, §6, §7, §8, §9

CTLL-2 cells = test: Cell growth activity assay (MTS), CTLL-2 cell model; assay type: cell-based, mouse; details: Mus musculus, CTLL-2, 300 nM, 24 h, read-out: CTLL-2 % growth rate @300 nM
From the text: (§10) MTS assay is a routine method for cell toxicity detection. The basic principle is based on the capacity of dehydrogenase in the mitochondria of living cells to reduce a novel yellow […] MTS to formazan, so that the amount of living cells is proportional to the amount of formazan product by detecting the absorbance at 490 nm (OD), thereby speculating the amount of living cells according to the OD value, and understanding the capacity of the test compound to inhibit the growth of cells or to kill the cells.
In this experiment, mouse T-cell line CTLL-2 was used. The proliferation and growth of this cell line strongly depend on IL-2, and it is commonly used to evaluate the active titer of exogenous IL-2. By inhibiting the activity of kinase JAK1/3, the proliferation of CTLL-2 can be inhibited under in vitro culture. The activation and proliferation of T-cell is also important pathological characteristics for various immunological diseases. Thus, this model is also pathologically related.
By comparing the change of absorbance generated by the cells treated by the test compounds using MTS assay, the growth inhibitory activity of the test compounds on the model cells can be realized, and thereby potential inhibitory activity of the compounds on JAK1/3 pathway can be evaluated.
(§11) MTS is performed according to routine procedure in a 96-well plate.
(§12) The model cells are inoculated into each well of the 96-well plate at an appropriate concentration (about 20,000 cells/well). After 24 h, the test compounds are added at different concentration gradients (the highest concentration of 10 μM). A solvent control (DMSO) and a negative control are also performed at the same time. Each experiment is repeated for 3 times. The cells are detected after cultured for another 24 h.
CTLL-2 is a suspended cell. After incubation, 20 μL pre-formulated mixture of MTS and PMS (in a ratio of 20:1) is directly added to each well. After incubation at 37° C. for 2 h, it is then detected by a microplate reader (490 nm).
The effect of the test compound on cell growth is calculated by comparing the change of OD values between the test well and the solvent control well, after subtracting the background of the negative control. For the test compounds at different concentration gradients, the inhibitory rates on the growth of model cells and their half-growth inhibitory concentrations (GI50) are each calculated.
Based on the above method, cytological evaluation is performed to the compounds described herein (for the detection of CTLL-2 cell, the concentration of the test compound is 300 nM; for the detection of HeLa and HUVEC cell, the concentration of the test compound is […]).

JAK3 = JAK3 (Homo sapiens (Human), UniProt P52333); test: Z'-LYTE enzymatic activity detection, JAK3; assay type: biochemical; details: test compound 30 nM; for inhibition at 0.03 µM: read-out: JAK3 % inhibitory rate @30 nM
JAK3, sequence (P52333 whole entry): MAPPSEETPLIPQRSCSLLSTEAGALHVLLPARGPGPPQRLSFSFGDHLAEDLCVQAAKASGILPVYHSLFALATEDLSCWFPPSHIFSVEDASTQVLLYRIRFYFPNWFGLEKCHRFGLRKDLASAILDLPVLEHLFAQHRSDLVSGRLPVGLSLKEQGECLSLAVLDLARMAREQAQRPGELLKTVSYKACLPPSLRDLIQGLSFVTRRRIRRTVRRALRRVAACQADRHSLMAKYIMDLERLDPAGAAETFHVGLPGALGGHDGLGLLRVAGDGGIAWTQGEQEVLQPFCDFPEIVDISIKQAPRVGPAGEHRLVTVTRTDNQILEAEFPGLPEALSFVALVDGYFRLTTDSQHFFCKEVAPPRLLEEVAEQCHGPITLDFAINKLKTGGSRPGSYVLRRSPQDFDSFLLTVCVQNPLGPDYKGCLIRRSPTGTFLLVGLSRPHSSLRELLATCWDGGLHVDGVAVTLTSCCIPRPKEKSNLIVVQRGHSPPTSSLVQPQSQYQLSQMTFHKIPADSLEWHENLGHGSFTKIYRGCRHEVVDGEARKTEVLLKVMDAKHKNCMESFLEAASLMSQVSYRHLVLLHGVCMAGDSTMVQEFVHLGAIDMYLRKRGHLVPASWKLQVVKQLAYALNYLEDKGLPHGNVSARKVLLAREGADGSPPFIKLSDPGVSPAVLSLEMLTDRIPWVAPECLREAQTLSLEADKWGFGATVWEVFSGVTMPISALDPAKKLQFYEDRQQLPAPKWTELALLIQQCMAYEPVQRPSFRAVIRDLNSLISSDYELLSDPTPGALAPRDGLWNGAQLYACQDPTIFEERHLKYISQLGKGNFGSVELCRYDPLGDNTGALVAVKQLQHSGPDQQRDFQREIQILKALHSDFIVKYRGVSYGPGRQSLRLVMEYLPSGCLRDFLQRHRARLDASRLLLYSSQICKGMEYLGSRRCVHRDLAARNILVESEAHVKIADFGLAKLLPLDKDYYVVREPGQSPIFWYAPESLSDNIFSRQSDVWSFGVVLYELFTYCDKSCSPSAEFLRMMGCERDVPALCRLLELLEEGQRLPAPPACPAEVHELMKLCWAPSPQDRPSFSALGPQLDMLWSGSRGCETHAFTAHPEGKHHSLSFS
Method: as §1, §2, §3, §4, §5, §6, §7, §8, §9

HeLa cells = test: Cell growth activity assay (MTS), HeLa cell model; assay type: cell-based, human; set-up: activity: dose or concentration left out as unconfirmed; details: Homo sapiens, HeLa, 72 h, read-out: HeLa % growth rate
From the text: as §10
HeLa cell is a human cervical cancer cell line, and belongs to epithelial tumor cell line; HUVEC is a human umbilical vein endothelial cell, and belongs to primary endothelial cell; both types of cells express all subtypes except for JAK3.
The change of JAK kinase activity has no significant influence on other cell types except for the immune cells, and both cell models mentioned above are mainly used to evaluate whether there are any other kinase targets besides JAK kinases or there are nonselective cell toxicities.
In this experiment, a cultured cell model is incubated with the test compounds at different concentrations for a specific duration. The effect of the treatment by the test compound on the growth of cells is detected using MTS assay.
as §11
as §12, with “(about 5000” for “(about 20,000”, “highest final” for “highest”, “concentration is 40” for “concentration of 10”, “another 72” for “another 24”
After all culture medium is aspirated out of the well, 100 μL fresh medium and 20 μL pre-formulated mixture of MTS and PMS (in a ratio of 20:1) are added to each well. After incubation at 37° C. for 2 h, it is then detected by a microplate reader (490 nm).
The cell growth inhibitory rate and GI50 of the test compound are calculated as above.
Based on the above method, cytological evaluation is performed to the compounds described herein (for the detection of CTLL-2 cell, the concentration of the test compound is 300 nM; […]).

SMILES | inhibition at 0.03 µM (JAK2) [%] | JAK1 RV (ratio between the inhibitory rate of the test compound and that of Xeljanz) (JAK1) | inhibition at 0.3 µM (JAK1) [%] | JAK3 RV (ratio between the inhibitory rate of the test compound and that of Xeljanz) (JAK3) | inhibition at 0.03 µM (JAK3) [%] | activity at 0.3 µM (CTLL-2 cells) [%] | activity (HeLa cells) [%]
C=CC(=O)N(C)c1cc(Nc2ncc(Cl)c(NCCCNC(=O)c3c(F)cc(F)cc3F)n2)ccc1F [Example 36, N-(3-(5-chloro-2-(4-fluoro-3-(N-methylacrylamido)phenylamino)pyrimidinyl-4-amino)propyl)-2,4,6-trifluorobenzamide] | 0 | 0.25 | 42 | 0.53 | 104 | 32 | 38
C=CC(=O)N(C)c1cc(Nc2ncc(Cl)c(NCCCNC(=O)c3ccc(OC)cc3)n2)ccc1F [Example 40, N-(3-(5-chloro-2-(4-fluoro-3-(N-methylacrylamido)phenylamino)pyrimidinyl-4-amino)propyl)-4-methoxylbenzamide] | 0 | 0.02 | 4 | 0.46 | 89 | 39 | 82
C=CC(=O)N(C)c1cc(Nc2ncc(Cl)c(NCCCNC(=O)c3ccc(C#N)cc3F)n2)ccc1F [Example 52, N-(3-(5-chloro-2-(4-fluoro-3-(N-methylacrylamido)phenylamino)pyrimidinyl-4-amino)propyl)-4-cyano-2-fluorobenzamide] | 0 | 0.08 | 14 | 0.54 | 105 | 29 | 64
C=CC(=O)N(C)c1cc(Nc2ncc(Cl)c(NCCCNC(=O)c3ccc(C#N)c(F)c3)n2)ccc1F [Example 56, N-(3-(5-chloro-2-(4-fluoro-3-(N-methylacrylamido)phenylamino)pyrimidinyl-4-amino)propyl)-4-cyano-3-fluorobenzamide] | 0 | 0.05 | 9 | 0.59 | 116 | 30 | 60

The next lines start with results.

inhibition at 0.03 µM (JAK2) [%] | JAK1 RV (ratio between the inhibitory rate of the test compound and that of Xeljanz) (JAK1) | inhibition at 0.3 µM (JAK1) [%] | JAK3 RV (ratio between the inhibitory rate of the test compound and that of Xeljanz) (JAK3) | inhibition at 0.03 µM (JAK3) [%] | SMILES | activity at 0.3 µM (CTLL-2 cells) [%] | activity (HeLa cells) [%]
0 | 0.40 | 35 | 0.96 | 79 | C=CC(=O)Nc1cc(Nc2ncc(Cl)c(NCCCNC(=O)c3ccc(C(F)(F)F)cc3)n2)ccc1F [Example 13, N-(3-(2-(3-acrylamido-4-fluoro-phenylamino)-5-chloropyrimidinyl-4-amino)propyl)-4-trifluoromethylbenzamide] | 63 | 1
0 | 0.34 | 58 | 0.58 | 113 | C=CC(=O)N(C)c1cc(Nc2ncc(Cl)c(NCCCNC(=O)c3ccc(C#N)nc3)n2)ccc1F [Example 44, N-(3-(5-chloro-2-(4-fluoro-3-(N-methylacrylamido)phenylamino)pyrimidinyl-4-amino)propyl)-6-cyanonicotinamide] | 29 | 39
0 | – | 0 | 0.56 | 109 | C=CC(=O)N(C)c1cc(Nc2ncc(Cl)c(NCCCNC(=O)c3ccc(O)cc3)n2)ccc1F [Example 48, N-(3-(5-chloro-2-(4-fluoro-3-(N-methylacrylamido)phenylamino)pyrimidinyl-4-amino)propyl)-4-hydroxybenzamide] | 50 | 90
0 | 0.01 | 1 | 0.79 | 107 | C=CC(=O)N(C)c1cc(Nc2ncc(C)c(NCCCNC(=O)c3ccc(C#N)cc3)n2)ccc1F [Example 58, 4-cyano-N-(3-(2-(4-fluoro-3-(N-methylacrylamido)phenylamino)-5-methylpyrimidinyl-4-amino)propyl)benzamide] | 54 | 88
0 | – | 0 | 0.79 | 106 | C=CC(=O)N(C)c1cc(Nc2ncc(F)c(NCCCNC(=O)c3ccc(C#N)cc3)n2)ccc1F [Example 60, 4-cyano-N-(3-(5-fluoro-2-(4-fluoro-3-(N-methylacrylamido)phenylamino)pyrimidinyl-4-amino)propyl)benzamide] | 79 | 94
